Consider nine molecules from patent US5489582A, “14-deoxy-14α-cardenolides 3β-thioderivatives and pharmaceutical composition comprising same for treating cardiovascular disorders” (Sigma-Tau Industrie Farmaceutiche Riuntie S.p.A, priority 1992, dated 1996).

Where a name gives a salt, the structure may show the parent alone.

One assay deals with hypertensive MHS rats. Briefly: systolic blood pressure and heart rate in hypertensive MHS rats, indirect tail-cuff method, oral. The format is in vivo, rat (MHS). The following applies: n=7, 20 mg/kg os daily for ten days, in METHOCEL 0.5% w/v; for SBP (systolic blood pressure): controls 174 +/- 5.5; for HR (heart rate): controls 378 +/- 11.0. The protocol: The ability of these compounds to lower blood pressure in adult hypertensive MHS rats was tested by the following method:
systolic blood pressure (SBP) and heart rate (HR) were measured by an indirect tail-cuff method in three-month old hypertensive MHS rats before beginning treatment (basal values). The rats were then subdivided in two groups of 7 animals each, one receiving the compound and the other, the control group, receiving only the vehicle. The compound, suspended in METHOCEL® 0.5% (w/v), for ten days, was administered daily by mouth. SBP and HR were measured daily 6 and 24 hours after the treatment. When ten-day treatment washout had been under way for at least two days, whether the treatment maintains SBP low or re-establish the basal values was verified. […]

For assay [1], the target named is T1, Na^+,K^+ -ATPase (Homo sapiens, UniProt P05023).
T1 construct: Na^+,K^+ -ATPase receptor purified according to Jorghensen; from tissue
Briefly: displacement of the specific 3H-ouabain binding from the purified Na+,K+-ATPase receptor. The text has this:
(§1) To test the affinity for the receptor site of the Na^+,K^+ -ATPase and the agonist or inhibitory activity on the enzyme, the following tests were used: a) displacement of the specific 3H-ouabain binding from the Na^+,K^+ -ATPase receptor purified according to Jorghensen (Jorghensen P., BBA, 1974, 356, 36) and Erdmann (Erdmann E. et al., Arzneim. Forsh., 1984, 34 (II), 1314); b) inhibition of the activity of the purified Na^+,K^+ -ATPase measured as % of hydrolysis of ^32 P-ATP in presence and in absence of the tested compound (Mall F. et al., Biochem. Pharmacol., 1984, 33, 47).

In assay [2] the target is T1, Na^+,K^+ -ATPase. Briefly: inhibition of the activity of the purified Na+,K+-ATPase (% hydrolysis of 32P-ATP). Format: biochemical.
Source text: as §1

The mark [3] stands for this setting: 3H-ouabain displacement, purified Na+,K+-ATPase, read-out: Binding ^3 H-Ouab. Displacement log. IC50 (converted).
The mark [4] stands for this setting: purified Na+,K+-ATPase, 32P-ATP hydrolysis, read-out: Inhibitory Activity log. IC50 (converted).

Consider `C[C@]12CC[C@H](O)C[C@H]1CC[C@@H]1[C@@H]2CC[C@]2(C)[C@@H](C3=CC(=O)OC3)CC[C@]12O` [DIGI, digitoxigenin, reference compound], for which, in the assay with hypertensive MHS rats, the “SBP (systolic blood pressure)” value is 173 +/- 4.0 mm Hg and the “HR (heart rate)” value was 380 +/- 10.0 beats/min.

Consider `C[C@]12CC[C@H](SCCN3CCCC3)C[C@H]1CC[C@@H]1[C@@H]2CC[C@]2(C)[C@@H](C3=CC(=O)OC3)CC[C@@H]12` [I-a, 3β-(2-(1-Pyrrolidinyl)ethylthio)-5β,14α-card-20(22)-enolideOxalate], for which the IC50 on Na^+,K^+ -ATPase [1] (setting [3]) was 3160 nM; at Na^+,K^+ -ATPase [2], 5010 nM.

For `CN(C)CCCS[C@H]1CC[C@@]2(C)[C@H](CC[C@@H]3[C@@H]2CC[C@]2(C)[C@@H](C4=CC(=O)OC4)CC[C@@H]32)C1` [I-b, 3β-(3-Dimethylaminopropylthio)-5β,14α-card-20(22)-enolide Oxalate], the results for the half-inhibitory concentration (IC50) on Na^+,K^+ -ATPase [1] (setting [3]) and on Na^+,K^+ -ATPase [2] were 1000 nM and 3160 nM, respectively.

Consider `C[C@]12CC[C@H](SCCCN3CCNCC3)C[C@H]1CC[C@@H]1[C@@H]2CC[C@]2(C)[C@@H](C3=CC(=O)OC3)CC[C@@H]12` [I-c, 3β-(3-(1-Piperazinyl)propylthio)-5β,14α-card-20(22)-enolideDioxalate], for which, on Na^+,K^+ -ATPase [1] (setting [3]), the IC50 was 794 nM. For the same molecule, at Na^+,K^+ -ATPase [2], the IC50 is 1580 nM. In the assay on hypertensive MHS rats, the “SBP (systolic blood pressure)” value is listed as 144 +/- 6.2 mm Hg and the “HR (heart rate)” value was 390 +/- 12.0 beats/min.

With `C[C@]12CC[C@H](SCCCN)C[C@H]1CC[C@@H]1[C@@H]2CC[C@]2(C)[C@@H](C3=CC(=O)OC3)CC[C@@H]12` [I-d, 3β-(3-Aminopropylthio)-5β,14α-card-20(22)-enolide Oxalate], the IC50 on Na^+,K^+ -ATPase [1] was 1260 nM. On Na^+,K^+ -ATPase [2], this molecule showed an IC50 of 2000 nM. Besides, in the assay on hypertensive MHS rats, the “SBP (systolic blood pressure)” value is recorded as 154 +/- 5.2 mm Hg and the “HR (heart rate)” value is 384 +/- 10.3 beats/min.

For `C[C@]12CC[C@H](SCC(O)CN3CCCC3)C[C@H]1CC[C@@H]1[C@@H]2CC[C@]2(C)[C@@H](C3=CC(=O)OC3)CC[C@@H]12` (stereo partly drawn) [I-e, 3β-(3-(1-Pirrolidinyl)-2-hydroxypropylthio)-5β,14α-card-20(22)-enolide], the results for the half-maximal inhibitory concentration (IC50) at Na^+,K^+ -ATPase [1] (setting [3]) and on Na^+,K^+ -ATPase [2] (setting [4]) were 2000 nM and 3980 nM, respectively.

Regarding `C[C@]12CC[C@H]3[C@@H](CCC4=C[C@@H](SCCCN)CC[C@@]43C)[C@@H]1CC[C@@H]2C1=CC(=O)OC1` [I-f, 3β-(3-Aminopropylthio)-14α-card-4,20(22)-dienolide Oxalate], the figures for the IC50 on Na^+,K^+ -ATPase [1] (setting [3]) and at Na^+,K^+ -ATPase [2] (setting [4]) were 1260 nM and 3160 nM, respectively. In addition, in the assay with hypertensive MHS rats, the “SBP (systolic blood pressure)” value was 148 +/- 5.6 mm Hg. Besides, the “HR (heart rate)” value with hypertensive MHS rats is 386 +/- 9.3 beats/min.

With `C[C@]12CC[C@H]3[C@@H](CC=C4C[C@@H](SCCCN)CC[C@@]43C)[C@@H]1CC[C@@H]2C1=CC(=O)OC1` [I-g, 3β-(3-Aminopropylthio)-14α-card-5,20(22)-dienolide Oxalate], at Na^+,K^+ -ATPase [1] (setting [3]), the IC50 is 1000 nM. Further, the IC50 at Na^+,K^+ -ATPase [2] (setting [4]) is 2000 nM. Besides, in the assay with hypertensive MHS rats, the “SBP (systolic blood pressure)” value is listed as 150 +/- 5.2 mm Hg and the “HR (heart rate)” value is 383 +/- 9.6 beats/min.

At Na^+,K^+ -ATPase [1], `C[C@]12CC[C@H](SCCCN)C[C@@H]1CC[C@@H]1[C@@H]2CC[C@]2(C)[C@@H](C3=CC(=O)OC3)CC[C@@H]12` [I-h, 3β-(3-Aminopropylthio)-5α,14α-card-20(22)-enolide Oxalate] had a 50% inhibitory concentration (IC50) of 1580 nM. This molecule gave an IC50 against Na^+,K^+ -ATPase [2] of 3980 nM. Moreover, in the assay with hypertensive MHS rats, the “SBP (systolic blood pressure)” value is 158 +/- 5.4 mm Hg and the “HR (heart rate)” value is on record as 379 +/- 10.4 beats/min.

The IC50 is the concentration that inhibits the measured activity by half.
